# Data taken from patent US12227496B2 (BRISTOL-MYERS SQUIBB COMPANY, priority 2019, dated 2025).
# Target: T1, human FXR (Homo sapiens, UniProt Q96RI1)
# T1 construct: expressed in transfected cells; host or cells: HEK293 cells stably carrying a 5xGal4-response-element firefly luciferase reporter, transiently transfected with pcDNA3.1-Gal4-FXR
# T1 sequence (Q96RI1 262-486 limits assumed): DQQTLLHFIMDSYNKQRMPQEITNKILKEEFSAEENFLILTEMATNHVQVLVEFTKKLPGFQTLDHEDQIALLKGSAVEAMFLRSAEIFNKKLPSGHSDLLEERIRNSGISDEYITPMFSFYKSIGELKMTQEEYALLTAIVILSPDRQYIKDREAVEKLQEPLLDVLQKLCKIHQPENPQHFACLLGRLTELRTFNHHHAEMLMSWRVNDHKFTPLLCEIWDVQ
# Experiment: transient human FXR/Gal4-luciferase reporter assay
# Assay type: cell-based
# Settings: Gal4-hFXR LBD fusion, luciferase reporter in HEK293 cells; response relative to 8 μM GW-4064
# Method in brief: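 HEK293 cells stably carrying a 5×Gal4-response-element firefly luciferase reporter were transiently transfected with Gal4-hFXR. They were then incubated overnight at 37 °C with compound serial dilutions in medium containing 10% charcoal/dextran-stripped FBS. Luminescence was read after Steady-Glo addition.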
row,EC50 [nM],SMILES
1,130,"Cn1nc(C2CC2)cc1C12CCC(CN(C(=O)C3CCC(F)(F)CC3)c3cccc(-c4cc(C5CC5)on4)c3)(CC1)CC2 [Example 163, N-((4-(3-cyclopropyl-1-methyl-1H-pyrazol-5-yl)bicyclo[2.2.2]octan-1-yl)methyl)-N-(3-(5-cyclopropylisoxazol-3-yl)phenyl)-4,4-difluorocyclohexane-1-carboxamide]"
2,1080,"CCOc1ccc(-c2cc(N(CC34CCC(c5nc(C(C)(C)C)no5)(CC3)CC4)C(=O)C3CCC(C)(O)CC3)ccc2F)cc1 (centres unmarked) [Example 166, N-((4-(3-(tert-butyl)-1,2,4-oxadiazol-5-yl)bicyclo[2.2.2]octan-1-yl)methyl)-N-(4′-ethoxy-6-fluoro-[1,1′-biphenyl]-3-yl)-4-hydroxy-4-methylcyclohexane-1-carboxamide]"
